Results taken from patent US11878973B2, “Bicyclic compounds and their uses” (NOVARTIS AG, priority 2021, dated 2024).
Read-outs that look alike come from different tables or passages of the source. One block for each compound: values may come before it.

Legend:
WRN helicase = WRN helicase (Homo sapiens (Human), UniProt Q14191); experiment: In vitro enzymatic activity assay on WRN helicase (DNA dependent ATPase assay, ADP-Glo); format: biochemical
Source text: An ATPase assay was set up to measure the DNA dependent ATP hydrolysis activity of WRN helicase. This assay was used also to assess the inhibition properties of compounds of the invention on DNA dependent WRN ATPase activity.
The core helicase motif of the WRN protein (aa N517-P1238) was produced for this assay (protein production as described above). […] The ADP-Glo assay kit (Promega, Madison, WI) allowing the quantification of ADP produced in ATP hydrolysis reactions was used for setting up this assay.
Time course experiments were first performed in order to determine the best enzymatic assay conditions (including buffer conditions, reaction time and concentrations of protein, ATP and DNA substrates). A typical reaction consists of 10 nM WRN protein, 0.2 nM FLAP26, and 300 micromolar ATP in the following assay buffer: 30 mM Tris pH7.5, 2 mM MgCl2, 0.02% BSA, 50 mM NaCl, 0.1% pluronic F127 prepared in DNAse free water. To evaluate the inhibition properties of compounds of the invention, serial dilutions were prepared in DMSO (10 half log dilutions from a 10 mM DMSO solution). […] The reaction was started by addition of 2.5 microliters of FLAP26 at 0.4 nM and incubated for 30 minutes at room temperature. The reaction was stopped with the addition of 5 microliters of the first ADP-Glo reagent and incubated for one hour to remove the excess amount of ATP. Afterwards, 10 microliters of ATP detection reagent was added and incubated for an additional hour before reading. Luminescence output was recorded using Tecan 1000 reader, with 5 minutes delay before reading. Each concentration of compound was tested in duplicates in the assay plate.
Following normalization of activity values for the wells to % inhibition (% inhibition=[(high control-sample)/(high control-low control)]×100), IC50 fitting was carried out from the duplicate determinations present on each plate according to [4]. Data analysis can also be carried out using commercially available software designed to derive IC50 values using 4-parameter fits (e.g. GraphPad Prism, XL fit). The reported IC50 values are the geometrical means of at least 2 independent replicates.

SW48 cells = experiment: Proliferation assay SW48 (CellTiterGlo, 96 hours)
DLD1-WRN-KO cells = experiment: Proliferation assay DLD1-WRN-KO (CellTiterGlo, 96 hours; off-target effects)
[1] = geometric means of at least 2 determinations, read-out: WRN ATPase Activity (IC50)
[2] = Homo sapiens, SW48, read-out: Proliferation Assay SW48 (GI50)
[3] = Homo sapiens, read-out: Proliferation Assay DLD1-WRN-KO (GI50)
[4] = read-out: Proliferation Assay SW48 (GI50), SW48 cell line, geometric means of at least 2 determinations
[5] = read-out: Proliferation Assay DLD1-WRN-KO (GI50), DLD1-WRN-KO cell line, geometric means of at least 2 determinations

WRN helicase, sequence (Q14191 517-1238): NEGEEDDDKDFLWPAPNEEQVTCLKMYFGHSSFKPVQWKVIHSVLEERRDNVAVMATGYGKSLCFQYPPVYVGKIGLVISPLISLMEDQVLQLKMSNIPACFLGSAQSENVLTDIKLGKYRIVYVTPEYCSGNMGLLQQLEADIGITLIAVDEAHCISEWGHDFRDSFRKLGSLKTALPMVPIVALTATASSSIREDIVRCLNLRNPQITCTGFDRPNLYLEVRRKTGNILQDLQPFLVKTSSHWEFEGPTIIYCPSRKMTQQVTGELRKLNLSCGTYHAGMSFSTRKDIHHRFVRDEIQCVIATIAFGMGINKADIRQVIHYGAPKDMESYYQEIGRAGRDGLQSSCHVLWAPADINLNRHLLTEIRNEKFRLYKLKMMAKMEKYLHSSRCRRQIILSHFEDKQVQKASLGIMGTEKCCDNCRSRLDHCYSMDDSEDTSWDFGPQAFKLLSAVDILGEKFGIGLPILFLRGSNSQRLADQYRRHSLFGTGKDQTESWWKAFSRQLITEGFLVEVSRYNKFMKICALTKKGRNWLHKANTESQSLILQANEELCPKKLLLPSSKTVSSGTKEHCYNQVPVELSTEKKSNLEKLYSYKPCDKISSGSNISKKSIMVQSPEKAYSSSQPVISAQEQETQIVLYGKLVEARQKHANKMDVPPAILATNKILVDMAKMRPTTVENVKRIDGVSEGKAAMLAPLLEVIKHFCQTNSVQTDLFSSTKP

SMILES: CCc1c(N2CCN(C(=O)c3ncncc3O)CC2)c(=O)n2nc(C3=CCOCC3)nc2n1CC(=O)Nc1ccc(S(F)(F)(F)(F)F)cc1Cl [Example 52, N-(2-chloro-4-(pentafluorosulfanyl)phenyl)-2-(2-(3,6-dihydro-2H-pyran-4-yl)-5-ethyl-6-(4-(5-hydroxypyrimidine-4-carbonyl)piperazin-1-yl)-7-oxo-[1,2,4]triazolo[1,5-a]pyrimidin-4(7H)-yl)acetamide]
IC50 (WRN helicase; [1]): 40 nM | GI50 (SW48 cells; [2]): 40 nM | GI50 (DLD1-WRN-KO cells; [3]): > 10000 nM

SMILES: CCc1c(N2CCN(C(=O)c3ncccc3O)CC2)c(=O)n2nc(C3=CCN(CC(F)F)CC3)nc2n1CC(=O)Nc1ccc(C(F)(F)F)cc1C [Example 115, 2-(2-(1-(2,2-difluoroethyl)-1,2,3,6-tetrahydropyridin-4-yl)-5-ethyl-6-(4-(3-hydroxypicolinoyl)piperazin-1-yl)-7-oxo-[1,2,4]triazolo[1,5-a]pyrimidin-4(7H)-yl)-N-(2-methyl-4-(trifluoromethyl)phenyl)acetamide]
IC50 (WRN helicase; [1]): 170 nM | GI50 (SW48 cells; [2]): 200 nM | GI50 (DLD1-WRN-KO cells; [3]): > 10000 nM

SMILES: CCc1c(N2C[C@@H](C)N(C(=O)c3ncnc(C)c3O)C[C@@H]2C)c(=O)n2nc(C3=CCOCC3)nc2n1CC(=O)Nc1ccc(C(F)(F)F)cc1Cl [Example 118, N-(2-chloro-4-(trifluoromethyl)phenyl)-2-(2-(3,6-dihydro-2H-pyran-4-yl)-5-ethyl-6-((2S,5R)-4-(5-hydroxy-6-methylpyrimidine-4-carbonyl)-2,5-dimethylpiperazin-1-yl)-7-oxo-[1,2,4]triazolo[1,5-a]pyrimidin-4(7H)-yl)acetamide]
IC50 (WRN helicase; [1]): 90 nM | GI50 (SW48 cells; [2]): 450 nM | GI50 (DLD1-WRN-KO cells; [3]): > 10000 nM

SMILES: CCc1c(N2CCN(C(=O)c3nccc(F)c3O)CC2)c(=O)n2nc(N3CCOCC3)nc2n1CC(=O)Nc1ccc(C(F)(F)F)cc1Cl [Example 3, N-(2-chloro-4-(trifluoromethyl)phenyl)-2-(5-ethyl-6-(4-(4-fluoro-3-hydroxypicolinoyl)piperazin-1-yl)-2-morpholino-7-oxo-[1,2,4]triazolo[1,5-a]pyrimidin-4(7H)-yl)acetamide]
IC50 (WRN helicase; [1]): 70 nM | GI50 (SW48 cells; [2]): 90 nM | GI50 (DLD1-WRN-KO cells; [3]): > 10000 nM

SMILES: CCc1c(N2CCN(C(=O)c3ncnc(C)c3O)[C@@H]3CC[C@@H]32)c(=O)n2nc(C3=CCOCC3)nc2n1CC(=O)Nc1ccc(C(F)(F)F)cc1Cl (single isomer, unassigned) [Example 132]
IC50 (WRN helicase; [1]): 890 nM | GI50 (SW48 cells; [4]): 490 nM | GI50 (DLD1-WRN-KO cells; [5]): > 10000 nM

SMILES: CCc1c(N2CCN(C(=O)c3nccc(Cl)c3O)CC2)c(=O)n2nc(N3CCOCC3)nc2n1CC(=O)Nc1ccc(C(F)(F)F)cc1Cl [Example 1, 2-(6-(4-(4-chloro-3-hydroxypicolinoyl)piperazin-1-yl)-5-ethyl-2-morpholino-7-oxo-[1,2,4]triazolo[1,5-a]pyrimidin-4(7H)-yl)-N-(2-chloro-4-(trifluoromethyl)phenyl)acetamide]
IC50 (WRN helicase; [1]): 50 nM | IC50 (WRN helicase; read-out: WRN ATPase inhibition (IC50)): 50 nM | GI50 (SW48 cells; [2]): 50 nM | GI50 (SW48 cells; Homo sapiens, SW48, read-out: proliferation GI50 in SW48, as stated in text): 50 nM | GI50 (DLD1-WRN-KO cells; Homo sapiens, DLD-1, read-out: proliferation GI50 in DLD1 WRN-KO): > 10000 nM | GI50 (DLD1-WRN-KO cells; [3]): > 10000 nM

SMILES: CCc1c(N2CCN(C(=O)c3ncnc(C)c3O)CC2)c(=O)n2nc(C3=CCOCC3)nc2n1CC(=O)Nc1ccc(C(F)(F)F)cc1Cl [Example 42, N-(2-chloro-4-(trifluoromethyl)phenyl)-2-(2-(3,6-dihydro-2H-pyran-4-yl)-5-ethyl-6-(4-(5-hydroxy-6-methylpyrimidine-4-carbonyl)piperazin-1-yl)-7-oxo-[1,2,4]triazolo[1,5-a]pyrimidin-4(7H)-yl)acetamide]
GI50 (SW48 cells; [2]): 50 nM

SMILES: [2H]C1([2H])N(C(=O)c2ncnc(C)c2O)C([2H])([2H])C([2H])([2H])N(c2c(CC)n(CC(=O)Nc3ccc(C(F)(F)F)cc3Cl)c3nc(C4=CCOCC4)nn3c2=O)C1([2H])[2H] [Example 133, N-(2-chloro-4-(trifluoromethyl)phenyl)-2-(2-(3,6-dihydro-2H-pyran-4-yl)-5-ethyl-6-(4-(5-hydroxy-6-methylpyrimidine-4-carbonyl)piperazin-1-yl-2,2,3,3,5,5,6,6-d8)-7-oxo-[1,2,4]triazolo[1,5-a]pyrimidin-4(7H)-yl)acetamide]
GI50 (SW48 cells; [2]): 60 nM

SMILES: Cc1c(N2CCN(C(=O)c3ncccc3O)CC2)c(=O)n2nc(C3=CCN(C(=O)OC(C)(C)C)CC3)nc2n1CC(=O)Nc1ccc(C(F)(F)F)cc1 [Example 126, tert-butyl 4-(6-(4-(3-hydroxypicolinoyl)piperazin-1-yl)-5-methyl-7-oxo-4-(2-oxo-2-((4-(trifluoromethyl)phenyl)amino)ethyl)-4,7-dihydro-[1,2,4]triazolo[1,5-a]pyrimidin-2-yl)-3,6-dihydropyridine-1(2H)-carboxylate]
IC50 (WRN helicase; [1]): 130 nM

Further lines, results first:

IC50 (WRN helicase; [1]): 860 nM | GI50 (SW48 cells; [4]): 1740 nM | GI50 (DLD1-WRN-KO cells; [5]): > 10000 nM
SMILES: CCc1c(N2CCN(C(=O)c3ncnc(C)c3O)[C@@H](C)[C@H]2C)c(=O)n2nc(C3=CCOCC3)nc2n1CC(=O)Nc1ccc(C(F)(F)F)cc1Cl (single isomer, unassigned) [Example 121]

IC50 (WRN helicase; [1]): 100 nM | GI50 (SW48 cells; [2]): 250 nM | GI50 (DLD1-WRN-KO cells; [3]): > 10000 nM
SMILES: CCc1c(N2CCN(C(=O)c3ncccc3O)CC2)c(=O)n2nc(C3=CCOCC3)nc2n1CC(=O)Nc1cc(C(F)(F)F)c(Cl)cc1C [Example 103, N-(4-chloro-2-methyl-5-(trifluoromethyl)phenyl)-2-(2-(3,6-dihydro-2H-pyran-4-yl)-5-ethyl-6-(4-(3-hydroxypicolinoyl)piperazin-1-yl)-7-oxo-[1,2,4]triazolo[1,5-a]pyrimidin-4(7H)-yl)acetamide]

IC50 (WRN helicase; [1]): 80 nM | GI50 (SW48 cells; [2]): 650 nM | GI50 (DLD1-WRN-KO cells; [3]): > 10000 nM
SMILES: Cc1c(C2CCN(C(=O)c3ncccc3O)CC2)c(=O)n2nc(C3=CCOCC3)nc2n1CC(=O)Nc1ccc(C(F)(F)F)cc1 [Example 136, 2-(2-(3,6-dihydro-2H-pyran-4-yl)-6-(1-(3-hydroxypicolinoyl)piperidin-4-yl)-5-methyl-7-oxo-[1,2,4]triazolo[1,5-a]pyrimidin-4(7H)-yl)-N-(4-(trifluoromethyl)phenyl)acetamide]

IC50 (WRN helicase; [1]): 40 nM | GI50 (SW48 cells; [2]): 140 nM | GI50 (DLD1-WRN-KO cells; [3]): > 10000 nM
SMILES: CCc1c(N2CCN(C(=O)c3nccc(OC(F)(F)F)c3O)CC2)c(=O)n2nc(C3=CCOCC3)nc2n1CC(=O)Nc1ccc(C(F)(F)F)cc1Cl [Example 98, N-(2-chloro-4-(trifluoromethyl)phenyl)-2-(2-(3,6-dihydro-2H-pyran-4-yl)-5-ethyl-6-(4-(3-hydroxy-4-(trifluoromethoxy)picolinoyl)piperazin-1-yl)-7-oxo-[1,2,4]triazolo[1,5-a]pyrimidin-4(7H)-yl)acetamide]

IC50 (WRN helicase; [1]): 50 nM | GI50 (SW48 cells; [2]): 50 nM | GI50 (DLD1-WRN-KO cells; [3]): > 10000 nM
SMILES: CCc1c(N2CCN(C(=O)c3nc(C)cc(F)c3O)CC2)c(=O)n2nc(C3=CCOCC3)nc2n1CC(=O)Nc1ccc(C(F)(F)F)cc1C [Example 62, 2-(2-(3,6-dihydro-2H-pyran-4-yl)-5-ethyl-6-(4-(4-fluoro-3-hydroxy-6-methylpicolinoyl)piperazin-1-yl)-7-oxo-[1,2,4]triazolo[1,5-a]pyrimidin-4(7H)-yl)-N-(2-methyl-4-(trifluoromethyl)phenyl)acetamide]

IC50 (WRN helicase; [1]): 40 nM | GI50 (SW48 cells; [2]): 120 nM | GI50 (DLD1-WRN-KO cells; [3]): > 10000 nM
SMILES: CCc1c(N2CCN(C(=O)c3ncccc3O)CC2)c(=O)n2nc(C3=COCCO3)nc2n1CC(=O)Nc1ccc(C(F)(F)F)cc1C [Example 113, 2-(2-(5,6-dihydro-1,4-dioxin-2-yl)-5-ethyl-6-(4-(3-hydroxypicolinoyl)piperazin-1-yl)-7-oxo-[1,2,4]triazolo[1,5-a]pyrimidin-4(7H)-yl)-N-(2-methyl-4-(trifluoromethyl)phenyl)acetamide]

GI50 (SW48 cells; [2]): 50 nM
SMILES: [2H]C([2H])(C(=O)Nc1ccc(C(F)(F)F)cc1Cl)n1c(CC)c(N2CCN(C(=O)c3ncnc(C)c3O)CC2)c(=O)n2nc(C3=CCOCC3)nc12 [Example 43, N-(2-chloro-4-(trifluoromethyl)phenyl)-2-(2-(3,6-dihydro-2H-pyran-4-yl)-5-ethyl-6-(4-(5-hydroxy-6-methylpyrimidine-4-carbonyl)piperazin-1-yl)-7-oxo-[1,2,4]triazolo[1,5-a]pyrimidin-4(7H)-yl)acetamide-2,2-d2]
